Data: patent US9883999B2, “Method for solubilizing rutin with polyhydroxy alkyl alcohols” (Colgate-Palmolive Company, priority 2013, dated 2018)

Experiments:
[1] = test system: exfoliated human oral mucosal cells; experiment: Protective (anti-oxidation) efficacy of rutin solutions by cell staining method (Janus Green B, H2O2/Fe2+ challenge); type: cell-based; settings: larger ΔE*a,b = stronger protection
Experimental: Rutin is dissolved in water to prepare a range of different levels of rutin solution. The protective efficacy of rutin solutions is measured using a cell staining method. In this method, the morphology of exfoliated human oral mucosal cells contacted with various concentrations of rutin is disclosed with Janus Green B dye. Photographic digital images are obtained using a light microscope with a 40× or 100× objective lenses connected to a digital camera. The color difference between the cell plasma and the area outside the cell, ΔE*a,b, is determined using the CIE L*a*b* system. The larger the ΔE*a,b value, the stronger the protective efficacy. The method includes the following steps: • 1. Human mucosal cells are collected and mixed with 1 mL Ringer solution, 0.5 mL Fe^2+ and 0.5 mL HAc—Ac buffer in a 5 mL Eppendorf tube. • 2. The cell suspension is then equally divided into two tubes. To the first tube is added 0.2 mL of 20 mM H2O2. To the second tube is added 0.2 mL Ringer solution. • 3. After 10 min, one drop of the above treated samples is placed on a microscope slide and stained with one drop of 0.1% Janus Green B for 1 h or longer. • 4. After staining, the cells are observed under the light microscope. Digital images are also acquired and ΔE*a, b is measured.

[2] = Initial evaluation of solubilizing agents for rutin by relative clarity of the solutions; type: physicochemical; settings: 0.5% rutin added to 10 g of each test solubilizer; propylene glycol best, sorbitol worst

## C[C@@H]1O[C@@H](OC[C@H]2O[C@@H](Oc3c(-c4ccc(O)c(O)c4)oc4cc(O)cc(O)c4c3=O)[C@H](O)[C@@H](O)[C@@H]2O)[C@H](O)[C@H](O)[C@H]1O [rutin, 2-(3,4-dihydroxyphenyl)-5,7-dihydroxy-3-[α-L-rhamnopyranosyl-(1→6)-β-D-glucopyranosyloxy]-4H-chromen-4-one]
[1]; rutin concentration 0.5 mM in water
  Protective efficacy (ΔE*a, b): 5.5
[1]; rutin concentration 1.0 mM in water
  Protective efficacy (ΔE*a, b): 24.7
[1]; rutin concentration 2.0 mM in water
  Protective efficacy (ΔE*a, b): 38.9
[2]
  solubility capability of the humectants, ranked: propylene glycol>>glycerin>PEG600≈PEG-40 hydrogenated castor oil>sorbitol
